Earlier results, collected in PubChem BioAssay AID1259409 (Chemical Carcinogenesis Research Information System (CCRIS), 2018).

Tested on: rodent chemically induced tumor inhibition, incidence and multiplicity
Experiment: CCRIS tumor inhibitor studies
Conditions: Species: RAT, Promoter: NONE USED

Compound: C[C@]12CCC(=O)C=C1CC[C@@H]1[C@@H]2[C@@H](O)C[C@@]2(C)[C@H]1CC[C@]2(O)C(=O)CO
- tumour outcome (control, treated, inhibition, significance) (Carcinogen: METHYLAZOXYMETHANOL ACETATE, 592-62-1, Dose [Inhibitor]: 7.5 MG/KG BW DAILY FOR 3 WK STARTING 21 WK POST CARCINOGEN TREATMENT (STUDY DURATION: 30 WK), Route [Inhibitor]: INTRARECTAL, Strain/Sex: DONRYU/MALE, Target Tissue: Type of Lesion: LARGE INTESTINE: ADENOCARCINOMA, Dose [Carcinogen]: 20 MG/KG BW 1/WK FOR 6 WK): 19/23 (83%), 16/29 (55%), 34%, p<0.05
- tumour outcome (control, treated, inhibition, significance) (Carcinogen: METHYLAZOXYMETHANOL ACETATE, 592-62-1, Dose [Inhibitor]: 7.5 MG/KG BW DAILY FOR 3 WK STARTING 21 WK POST CARCINOGEN TREATMENT (STUDY DURATION: 30 WK), Route [Inhibitor]: INTRARECTAL, Strain/Sex: DONRYU/MALE, Target Tissue: Type of Lesion: SMALL INTESTINE: ADENOCARCINOMA, Dose [Carcinogen]: 20 MG/KG BW 1/WK FOR 6 WK): 10/23 (43%), 4/29 (14%), 67%, p<0.05
- tumour outcome (control, treated, inhibition, significance) (Dose [Inhibitor]: 0, 1.5 MG 2/WK FOR 10 WK (STUDY DURATION: 65 WK), Route [Inhibitor]: INTRAMUSCULAR, Strain/Sex: F344/MALE, Target Tissue: Type of Lesion: LIVER: HEPATOCELLULAR CARCINOMA, Dose [Carcinogen]: 100 UG 2/WK FOR 10 WK): 12/13 (92%), 15/24 (63%), 32%, p<0.05
